Reference: patent publication US12496350B2 (Ohio State Innovation Foundation, priority 2018, dated 2025)
pIC50: −log10 of the molar value. Where a SMILES comes first, the peptide text is derived from it. Bridges are numbered along the chain shown (N, C = ends). [ ]: non-standard residue; d: D form. 2Nal = N[C@@H](Cc1ccc2ccccc2c1)C(=O)O; Bta = N[C@@H](Cc1csc2ccccc12)C(=O)O; Pen = CC(C)(S)[C@H](N)C(=O)O; Tle = CC(C)(C)[C@H](N)C(=O)O; Pip = O=C(O)[C@@H]1CCCCN1

Key:
HeLa cells = assay: Cellular uptake efficiency by flow cytometry; format: cell-based; conditions: HeLa cells
Method: (§1) Cellular Uptake Efficiency: HeLa cells were seeded into 12-well cell-culture treated plates at a final density of 15×10^4 cells/well in DMEM supplemented with 10% FBS and 1% penicillin/streptomycin and incubated overnight at 37° ° C. and 5% CO2. After 24 h, the media was aspirated followed by washing the cells three times with warm DPBS. Peptides were diluted to a final concentration of 5 μM in DMEM containing 10% FBS with 1% penicillin/streptomycin, added to each well and then incubated for 2 h at 37° C. and 5% CO2. After 2 h, treatment media was aspirated and the cells were washed three times with ice-cold DPBS. Cells were removed from the plate via treatment with trypsin/EDTA and then harvested in ice-cold DPBS followed by centrifugation at ×300 RCF, 4° C. for 5 min. Cells were resuspended in DPBS and quantified using a BD Biosciences LSR II flow cytometer and gated using FlowJo. Values for uptake are provided as a percentage relative to positive control, CPP9 ([cyclo-fΦRrRrQ]-miniPEG-K[NF]).
as §1, with “Cellular Uptake. HeLa cells” for “Cellular Uptake Efficiency: HeLa cells”, “at 37° C. and” for “at 37° ° C. and”, “37° C. with 5% CO2.” for “37° C. and 5% CO2.”, “centrifugation at 300 g, 4° C.” for “centrifugation at ×300 RCF, 4° C.”, “control, CPP9 ([cyclo-fΦRrRrQ]-miniPEG-K[NF]), which has a 62% cytosolic entry efficiency. PGD97 entered HeLa cells at 60% efficiency relative to CPP9, corresponding to an absolute cytosolic entry efficiency of ˜36% (FIG. 9).” for “control, CPP9 ([cyclo-fΦRrRrQ]-miniPEG-K[NF]).”

[1] = molecular target: T1, CAL PDZ domain (CALP5-His) (Homo sapiens, UniProt Q9HD26); assay: FP/FA-based competition assay, Condition A (probe peptide 26); format: binding; conditions: Condition A (superscript a): 50 nM probe peptide 26, 100 nM CALP5-His, 2 mM TCEP
T1 construct: His
Description: First, the C-terminal valine (position 0) was replaced with a variety of residues and evaluated for binding to CAL PDZ domain in silico.

H358 (lung cancer) cells = assay: Cytotoxicity, MTT assay; format: cell-based; conditions: 72 h, up to 50 μM
Method: (§2) Cytotoxicity. CFBE, HCT116 (colorectal cancer), or H358 (lung cancer) cells were seeded into a 96-well microplate (5000 cells per well) in full growth media and incubated at 37° C. overnight. A serial dilution of PGD97 was prepared in DPBS and then added to each well. The treated cells were incubated at 37° C. with 5% CO2 for 72 h. Following compound treatment, 10 μL of MTT stock solution was added to each well. After an additional 4 h at 37° C., 100 μL of SDS-HCl solubilizing solution was added to each well and the plate was returned to the incubator overnight at 37° C. A Tecan Infinite M1000 Pro microplate reader was used the following morning to measure the absorbance of the formazan product at 565 nm.

[2] = test system: HCT116 (colorectal cancer) cells; assay: Cytotoxicity, MTT assay; format: cell-based; conditions: 72 h, up to 50 μM
Method: as §2

CFBE cells [3] = assay: Cytotoxicity, MTT assay; format: cell-based; conditions: 72 h, up to 50 μM
Method: as §2

[4] = test system: patient-derived primary cells; assay: Short-circuit current, Ussing chamber; format: cell-based, human; conditions: 100 nM with 10 μM VX661, 24 h
Method: (§3) Effect on Ion Channel Activity. CFBE or patient-derived primary cells were seeded onto filter inserts and grown to confluence at 37° C. in complete growth medium containing 10% FBS and 1% penicillin/streptomycin. Once confluent, cells were gently washed with DPBS and 10 µM VX661 and/or 100 nM PGD97 were added in complete growth medium supplemented with 10% FBS and 1% penicillin/streptomycin for 4 h or 24 h at 37° ° C. before measuring short circuit current using an Ussing chamber. PGD97 improved the ion channel activity by 33% and 37% relative to VX661 only controls after 4 and 24 h, respectively (FIGS. 12A and 12B).

ΔF508CFTR-FAP = assay: ΔF508 CFTR membrane expression, FAP assay in HEK-293T cells; format: cell-based
Method: Effect on ΔF508 CFTR Membrane Expression. HEK-293T cells stably expressing ΔF508CFTR-FAP (Holleran et al. Mol. Med. 2012, 18, 685-696) were seeded into poly-L-lysine-coated white-wall, clear bottom 96-well plates (100,000 cells/well) in complete growth medium and incubated for 24 h at 27° ° C. or 37° C. and 5% CO2. After 24 h, media was aspirated from each well and washed twice with warm DPBS. Compound serial dilutions with or without 10 μM VX809 were added to each well in fresh penicillin/streptomycin-free media containing 10% FBS and incubated at 27° ° C. or 37° ° C. in 5% CO2 for 24 h. After 24 h, the media was aspirated and each well was washed 3× with warm DPBS. 500 nM MG-B-Tau and 500 nM Hoechst 33342 was added in DPBS and MG-B-Tau fluorescence was immediately measured on a TECAN Infinite M1000 plate reader (excitation=640 nm, emission=680 nm, 10 nm bandwidth, 16 distinct points per well). After measurement, the plate was returned to the incubator at 37° C. for 1 h before quantifying Hoechst 33342 fluorescence on a TECAN Infinite M1000 plate reader (excitation=362 nm, emission=492 nm, 5 nm bandwidth, identical points per well as measured for MG-B-Tau). Cell-count normalized fluorescent intensity was determined by dividing the per-well MG-B-Tau intensity by Hoechst intensity and then plotted relative to untreated control using GraphPad PRISM ver. 7.0.

HCT116 cell spheroids = assay: Intracellular stability by MALDI imaging; format: in vitro ADME; conditions: after 4 or 24 h incubation with PGD97
Method: Intracellular Stability. PGD97 ([…]) was added to HCT116 cell spheroids in RPMI-1640 medium supplemented with 10% FBS and 1% penicillin/streptomycin and incubated for 4 or 24 h. After incubation, spheroids were washed 3× with DPBS, quickly frozen, embedded in a solid support, and cryo-sectioned. Prior to analysis, sinapinic acid was sublimed onto individual slides. The sample was imaged using a Bruker ultrafleXtreme MALDI-TOF-TOF and analyzed for the presence of proteolytic degradation fragments. Heatmaps, scaled relative to the most intense signal, were generated for the intact peptide (both 29 and 32) as well as ˜20 potential proteolytic fragments at each time point. […] A degradation fragment (#1) corresponding to proteolytic cleavage between Thr and Arg (FIG. 8B) was observed, but none of the other potential degradation products were observed. […] Most importantly, significant concentrations of intact peptide 29 was still present inside the cells after 24 h.

LC3-II = assay: Autophagy in macrophages, western blotting for LC3-II; format: cell-based, human; conditions: 100 nM, 48 h, ΔF508 CFTR macrophages
Method: Effect on Autophagy in Macrophage. Human primary ΔF508 CFTR macrophages were incubated with 10 μM VX809 (n=1) or 100 nM PGD97 (n=2) for 48 h in complete growth medium supplemented with 10% FBS and 1% penicillin/streptomycin at 37° C. Induction of autophagy was determined via western blotting for autophagy-associated protein LC3-II.

CFBE cells [5] = assay: Short-circuit current, Ussing chamber; format: cell-based; conditions: 100 nM with 10 μM VX661, relative to VX661 only control
Method: as §3

Uptake (% rel.) (HeLa cells; 5 μM, 2 h, relative to CPP9 (100%)) [%] | pIC50 [1] | SMILES | cell viability (H358 (lung cancer) cells) | cell viability [2] | cell viability (CFBE cells [3]) | cytosolic entry efficiency relative to CPP9 (HeLa cells; 5 μM, 2 h) [%] | absolute cytosolic entry efficiency (HeLa cells; from relative efficiency and CPP9 value) [%] | ion channel activity (short-circuit current) [4] | concentrations at which increased expression was observed (ΔF508CFTR-FAP) [nM] | cell surface expression of ΔF508CFTR-FAP (ΔF508CFTR-FAP; 10 μM PGD97) | cell surface expression of ΔF508CFTR-FAP (ΔF508CFTR-FAP; PGD97 alone, 27° C., 24 h) | cell surface expression of ΔF508CFTR-FAP (ΔF508CFTR-FAP; in combination with 10 μM VX809, 27° C.) | presence of intact peptide in spheroids (HCT116 cell spheroids) | LC3-II protein levels (LC3-II) | improvement of ion channel activity (short-circuit current) (CFBE cells [5]; after 4 h) [%] | improvement of ion channel activity (short-circuit current) (CFBE cells [5]; after 24 h) [%]
17 ± 2 | 6.40 | CC(=O)N[C@@H](CS)C(=O)N[C@@H](CCCNC(=N)N)C(=O)N[C@H](CCCNC(=N)N)C(=O)N[C@@H](CCCNC(=N)N)C(=O)N[C@@H](Cc1ccc2ccccc2c1)C(=O)N[C@@H](Cc1c[nH]c2ccccc12)C(=O)N[C@@H](CCC(N)=O)C(=O)N[C@H](C(=O)N[C@H](C(=O)N[C@@H](CCCNC(=N)N)C(=O)N[C@H](C(=O)O)C(C)(C)C)[C@@H](C)O)C(C)(C)S [Compound 22, Ac-Cys-Arg-(D-Arg)-Arg-(2-Nal)-Trp-Gln-Pen-Thr-Arg-Tle-OH] (Ac-CR[dR]R[2Nal]WQ[Pen]TR[Tle]-OH) | – | – | – | – | – | – | – | – | – | – | – | – | – | –
– | – | CC(=O)N[C@H]1CSSC(C)(C)[C@@H](C(=O)N[C@H](C(=O)N[C@@H](CCCNC(=N)N)C(=O)N[C@H](C(=O)O)C(C)(C)C)[C@@H](C)O)NC(=O)[C@@H]2CCCCN2C(=O)[C@H](Cc2csc3ccccc23)NC(=O)[C@H](Cc2ccc3ccccc3c2)NC(=O)[C@H](CCCNC(=N)N)NC(=O)[C@H](CCCNC(=N)N)NC(=O)[C@@H](CCCNC(=N)N)NC1=O [Compound 32, Ac-Cys*-(D-Arg)-Arg-Arg-Nal-Bta-Pip-Pen*-Thr-Arg-Tle-OH] (Ac-C[dR]RR[2Nal][Bta][Pip][Pen]TR[Tle]-OH; disulfide 1-8) | did not significantly reduce the viability | did not significantly reduce the viability | did not significantly reduce the viability | 60 | ~36 | significantly increased the ion channel activity | 10 to 1000 | reduced its surface expression | slightly increased | further increase in cell surface expression | not | increased the LC3-II protein levels to nearly WT level | 33 | 37
